Measurements: PubChem BioAssay (NCI)
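Where inhibition never reached the appropriate level, the endpoint shown equals the highest concentration tested. Otherwise, values were interpolated linearly from a five-concentration, 48-hour dose response in 96-well plates. Definition used: TGI = concentration required for complete inhibition of growth.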

What was measured:
Experiment in all cases: DTP human tumour cell line panel, 48 h
[1] = system: MCF7 breast
[2] = system: OVCAR-5 ovarian
[3] = system: UACC-62 melanoma
[4] = system: RXF 393 renal
[5] = system: DU-145 prostate
[6] = system: SK-MEL-28 melanoma
[7] = system: NCI-H23 lung
[8] = system: HCC-2998 colon
[9] = system: COLO 205 colon
[10] = system: HL-60(TB) leukemia
[11] = system: KM12 colon
[12] = system: OVCAR-4 ovarian
[13] = system: HOP-92 NSCLC
[14] = system: A549 NSCLC
[15] = system: PC-3 prostate
[16] = system: HS 578T breast
[17] = system: NCI-H460 lung
[18] = system: SF-539 CNS
[19] = system: HCT-116 colon
[20] = system: TK-10 renal
[21] = system: SF-295 CNS
[22] = system: NCI-H522 lung
[23] = system: 786-0 renal
[24] = system: HOP-62 NSCLC
[25] = system: NCI-H226 lung
[26] = system: SNB-19 CNS
[27] = system: NCI/ADR-RES ovarian
[28] = system: CCRF-CEM leukemia
[29] = system: IGROV1 ovarian
[30] = system: M14 melanoma
[31] = system: UO-31 renal
[32] = system: HT29 colon
[33] = system: SR leukemia
[34] = system: CAKI-1 renal
[35] = system: BT-549 breast
[36] = system: OVCAR-3 ovarian
[37] = system: A498 renal
[38] = system: EKVX NSCLC
[39] = system: SW-620 colon
[40] = system: ACHN renal
[41] = system: MOLT-4 leukemia
[42] = system: SK-MEL-2 melanoma
[43] = system: SF-268 CNS
[44] = system: SN12C renal
[45] = system: MDA-MB-435
[46] = system: T-47D breast
[47] = system: MDA-MB-231 breast
[48] = system: MALME-3M melanoma
[49] = system: U251 CNS
[50] = system: SNB-75 CNS
[51] = system: SK-MEL-5 melanoma
[52] = system: SK-OV-3 ovarian
[53] = system: RPMI-8226 leukemia
[54] = system: MDA-N
[55] = system: LOX IMVI melanoma
[56] = system: HCT-15 colon
[57] = system: UACC-257 melanoma
[58] = system: OVCAR-8 ovarian
[59] = system: K-562 leukemia

`COc1cc2c(cc1OC)C1(c3ccccc3)CN(C2)Cc2cc(OC)c(OC)cc21` was tested, and the TGI [1] was > 100 µM, the TGI [2] was > 100 µM and the TGI [3] was > 100 µM. For the same molecule, the TGI [4] was 60.3 µM, the TGI [5] was > 100 µM and the TGI [6] was > 100 µM. For the same molecule, the TGI [7] was 68.3 µM, the TGI [8] was 50.1 µM and the TGI [9] was 34.2 µM. For the same molecule, the TGI [10] was 63.8 µM, the TGI [11] was > 100 µM and the TGI [12] was 77.6 µM. For the same molecule, the TGI [13] was > 100 µM, the TGI [14] was > 100 µM and the TGI [15] was > 100 µM. The TGI [16] was 75.5 µM, the TGI [17] was > 100 µM and the TGI [18] was 41.9 µM. For the same molecule, the TGI [19] was > 100 µM, the TGI [20] was > 100 µM and the TGI [21] was > 100 µM. The TGI [22] was > 100 µM, the TGI [23] was > 100 µM and the TGI [24] was > 100 µM. The TGI [25] was 91.4 µM, the TGI [26] was > 100 µM and the TGI [27] was 74.9 µM. For the same molecule, the TGI [28] was 61.4 µM, the TGI [29] was > 100 µM and the TGI [30] was 59.6 µM. For the same molecule, the TGI [31] was > 100 µM, the TGI [32] was > 100 µM and the TGI [33] was 32.2 µM. For the same molecule, the TGI [34] was > 100 µM, the TGI [35] was 80.1 µM and the TGI [36] was > 100 µM. The TGI [37] was > 100 µM, the TGI [38] was > 100 µM and the TGI [39] was > 100 µM. For the same molecule, the TGI [40] was > 100 µM, the TGI [41] was 84.7 µM and the TGI [42] was 70.1 µM. The TGI [43] was > 100 µM, the TGI [44] was > 100 µM and the TGI [45] was 54.8 µM. For the same molecule, the TGI [46] was > 100 µM, the TGI [47] was 53.8 µM and the TGI [48] was > 100 µM. It also gave a TGI [49] of 54.6 µM, a TGI [50] of 92.3 µM and a TGI [51] of 53.3 µM. The TGI [52] was > 100 µM, the TGI [53] was 80.2 µM and the TGI [54] was > 100 µM. For the same molecule, the TGI [55] was > 100 µM, the TGI [56] was > 100 µM and the TGI [57] was > 100 µM. For the same molecule, the TGI [58] was > 100 µM and the TGI [59] was > 100 µM.
